What was measured:
[1] = target: T1, Human ACC1 (Homo sapiens, UniProt Q13085); experiment: in vitro enzymatic ACC activity assay (malachite green, absorbance at 620 nm), ACC1; assay type: biochemical; conditions: recombinant His-tagged human ACC1, 8 μg/mL; 60 min preincubation, 20 min reaction at 30° C.
T1 construct: made in house; host or cells: SF-9 insect cells (baculovirus, pFAST-BacHTc)
Description: (§1) Provided in Example A is an in vitro enzymatic ACC activity assay for activity against ACC. The binding affinity of the test compound to ACC1 or ACC2 is determined by the changes in absorbance (at 620 nm); […]. It should be noted that a variety of other expression systems and hosts are also suitable for the expression of ACC, as would be readily appreciated by one of skill in the art.
A. Purification of Human ACC1
Human ACC1 cDNA was amplified from human liver cDNA by polymerase chain reaction using primers; 5′[…]3′ (SEQ ID NO. 1) and 5′[…]3′ (SEQ ID NO: 2). The amplified DNA fragment was digested by restriction enzyme SalI and NotI, and cloned into pFAST-BacHTc (Invitrogen). This plasmid DNA was used for preparation of recombinant vaculovirus with BAC-TO-BAC Baculovirus Expression System (Invitrogen).
SF-9 cells were infected with the vaculovirus and cultured at 27° C. for 3 days. Harvested cells were homogenized in buffer A (25 mM HEPES (pH7.5), 130 mM NaCl, 1 mM EDTA, 25 mM sodium glycerophosphate, 1 mM sodium orthovanadate, 10% glycerol, complete protease inhibitor), and subjected to ultracentrifuge at 185700×g for 50 min at 4° C. ACC1 protein with 6×His-tag at the N-terminal was purified from the supernatant using Ni-NTA Super Flow Gel (QIAGEN). Eluted protein was dialysed against buffer B (50 mM HEPES (pH 7.5), 300 mM NaCl, 10 mM MgCl2, 10 mM tripotassium citrate, 2 mM dithiothreitol) and concentrated using Vivaspin20 ultrafiltration tube (Sartorius).
(§2) C. Measurement of ACC Activity
(§3) Malachite green solution was prepared by mixing 100 mL of solution A (0.12% malachite green in 5N H2SO4), 25 mL of solution B (7.5% ammonium molybdate) and 2 mL of solution C (11% TWEEN-20).
(§4) ACC1 was diluted to 8 μg/mL in reaction buffer (50 mM HEPES pH7.5, 10 mM MgCl2, 10 mM tripotassium citrate, 2 mM DTT, 0.75 mg/mL fatty acid free BSA) and 10 μL diluted enzyme solution was pored into each well of 384-well clear bottom plate. Test compound was diluted in the reaction buffer and 5 μL of the compound solution was added into each well, and the mixture was incubated at 30° C. for 60 minutes. Reaction was initiated by addition of 5 μL substrate solution (50 mM KHCO3, 200 μM ATP, 200 μM acetyl-CoA). After incubation at 30° C. for 20 minutes, reaction was terminated by addition of 5 μL malachite green solution and absorbance at 620 nm was measured.
(§5) Percent activity at each concentration of compound was calculated from the following equation:
(§6) [formula] where Abs is absorbance, Avg is average.
(§7) Data were subjected to nonlinear regression analysis using GraphPad Prism Software (GraphPad Software Inc.) to obtain IC50 values.

[2] = target: T2, Human ACC2 (Homo sapiens, UniProt O00763); experiment: in vitro enzymatic ACC activity assay (malachite green, absorbance at 620 nm), ACC2; assay type: biochemical; conditions: recombinant His-tagged human ACC2, 6.4 μg/mL; same method as ACC1
T2 construct: made in house; host or cells: SF-9 insect cells (baculovirus, pFAST-BacHTa)
Description: as §1
B. Purification of Human ACC2
Human ACC2 cDNA except coding region for mitochondria localization sequence was amplified from human skeletal muscle cDNA by polymerase chain reaction using primers; 5′[…]3′ (SEQ ID NO: 3) and 5′[…]3′ (SEQ ID NO: 4). The amplified DNA fragment was digested by SalI and AflIII, and cloned into pFAST-BacHTa (Invitrogen). Preparation of recombinant vaculovirus, infection of the virus to SF-9 cells and purification of recombinant ACC2 protein with 6×His-tag at the N-terminal were performed in the same method as described above.
as §2, §3, §4
ACC2 was diluted to 6.4 μg/mL in reaction buffer, and the activity was measured by the same method as described for ACC1.
as §5, §6, §7

T2 sequence (O00763 117-2458 limits assumed): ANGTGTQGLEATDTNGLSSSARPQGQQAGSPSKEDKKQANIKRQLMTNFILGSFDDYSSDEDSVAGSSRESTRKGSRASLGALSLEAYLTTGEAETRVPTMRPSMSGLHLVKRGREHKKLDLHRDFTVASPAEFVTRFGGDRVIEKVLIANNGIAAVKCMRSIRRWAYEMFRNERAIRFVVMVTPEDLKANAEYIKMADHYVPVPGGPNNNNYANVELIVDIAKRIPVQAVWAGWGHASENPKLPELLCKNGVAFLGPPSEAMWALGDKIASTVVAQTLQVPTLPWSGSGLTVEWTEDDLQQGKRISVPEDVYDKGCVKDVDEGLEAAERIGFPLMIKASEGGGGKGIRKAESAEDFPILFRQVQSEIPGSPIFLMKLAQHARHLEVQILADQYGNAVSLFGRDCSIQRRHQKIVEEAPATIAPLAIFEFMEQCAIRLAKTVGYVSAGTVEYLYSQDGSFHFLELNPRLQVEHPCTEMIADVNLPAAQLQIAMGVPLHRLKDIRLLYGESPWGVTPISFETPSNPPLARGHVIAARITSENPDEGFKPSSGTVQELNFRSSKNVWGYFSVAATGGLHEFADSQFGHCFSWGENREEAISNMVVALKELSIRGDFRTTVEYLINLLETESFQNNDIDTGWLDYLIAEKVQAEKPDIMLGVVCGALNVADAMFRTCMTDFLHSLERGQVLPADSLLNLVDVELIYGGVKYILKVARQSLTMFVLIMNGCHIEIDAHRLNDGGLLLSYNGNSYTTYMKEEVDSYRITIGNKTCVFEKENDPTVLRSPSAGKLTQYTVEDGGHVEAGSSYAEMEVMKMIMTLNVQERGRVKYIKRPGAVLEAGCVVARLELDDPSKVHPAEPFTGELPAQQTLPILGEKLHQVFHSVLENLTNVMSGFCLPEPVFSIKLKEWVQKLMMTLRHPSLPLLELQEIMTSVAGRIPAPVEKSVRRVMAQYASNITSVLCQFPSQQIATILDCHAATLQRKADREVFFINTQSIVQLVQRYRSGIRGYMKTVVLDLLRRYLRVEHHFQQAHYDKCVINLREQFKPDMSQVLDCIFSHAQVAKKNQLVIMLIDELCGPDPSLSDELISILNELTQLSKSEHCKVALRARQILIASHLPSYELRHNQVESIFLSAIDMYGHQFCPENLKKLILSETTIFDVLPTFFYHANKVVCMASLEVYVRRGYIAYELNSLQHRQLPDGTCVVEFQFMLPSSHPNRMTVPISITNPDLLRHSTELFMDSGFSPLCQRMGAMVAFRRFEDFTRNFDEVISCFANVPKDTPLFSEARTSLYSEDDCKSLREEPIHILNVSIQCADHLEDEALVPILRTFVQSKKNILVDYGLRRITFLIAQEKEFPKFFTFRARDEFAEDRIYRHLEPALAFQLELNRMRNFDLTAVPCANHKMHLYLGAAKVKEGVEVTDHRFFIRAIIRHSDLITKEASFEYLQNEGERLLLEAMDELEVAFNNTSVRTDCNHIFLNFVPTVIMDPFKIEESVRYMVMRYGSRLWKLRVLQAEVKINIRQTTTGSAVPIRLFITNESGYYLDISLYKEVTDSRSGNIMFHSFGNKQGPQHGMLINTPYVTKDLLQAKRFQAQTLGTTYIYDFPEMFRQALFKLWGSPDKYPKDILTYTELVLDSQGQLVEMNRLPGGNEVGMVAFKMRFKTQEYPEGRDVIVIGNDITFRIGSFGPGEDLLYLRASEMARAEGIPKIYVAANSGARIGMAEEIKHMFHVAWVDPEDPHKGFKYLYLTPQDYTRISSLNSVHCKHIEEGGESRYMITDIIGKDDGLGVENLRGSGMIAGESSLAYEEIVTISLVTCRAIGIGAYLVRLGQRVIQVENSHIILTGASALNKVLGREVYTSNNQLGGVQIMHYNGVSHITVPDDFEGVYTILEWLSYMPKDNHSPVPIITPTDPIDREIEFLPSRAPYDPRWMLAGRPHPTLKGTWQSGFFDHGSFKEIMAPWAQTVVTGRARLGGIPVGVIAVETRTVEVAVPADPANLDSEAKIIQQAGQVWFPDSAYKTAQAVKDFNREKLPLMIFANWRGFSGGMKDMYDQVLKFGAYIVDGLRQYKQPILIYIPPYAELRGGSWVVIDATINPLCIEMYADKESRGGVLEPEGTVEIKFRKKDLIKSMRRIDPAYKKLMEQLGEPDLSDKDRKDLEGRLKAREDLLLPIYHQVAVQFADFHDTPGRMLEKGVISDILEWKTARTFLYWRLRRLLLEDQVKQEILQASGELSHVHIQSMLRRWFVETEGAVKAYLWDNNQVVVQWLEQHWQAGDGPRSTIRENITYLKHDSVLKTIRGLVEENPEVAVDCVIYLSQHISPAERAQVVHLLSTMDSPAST

IC50 [1]	IC50 [2]	SMILES
1 to 10 µM	< 1 µM	CCNC(=O)Nc1sc2c(OC)cccc2c1C(=O)N1CCC2(CC1)N=C(C(C)C)NC2=O [Compound 16, 1-ethyl-3-(3-(2-isopropyl-4-oxo-1,3,8-triazaspiro[4.5]dec-2-enecarbonyl)-7-methoxybenzo[b]thiophen-2-yl)urea]
< 1 µM	< 1 µM	CCCCC1=NC2(CCN(C(=O)c3c(NC(=O)NCC)sc4c(OC)cccc34)CC2)C(=O)N1 [Compound 17, 1-(3-(2-butyl-4-oxo-1,3,8-triazaspiro[4.5]dec-1-enecarbonyl)-7-methoxybenzo[b]thiophen-2-yl)-3-ethylurea]
1 to 10 µM	< 1 µM	CCNC(=O)Nc1sc2ccccc2c1C(=O)N1CCC2(CC1)N=C(CSC(C)C)NC2=O [Compound 22, 1-ethyl-3-(3-(2-(isopropylthiomethyl)-4-oxo-1,3,8-triazaspiro[4.5]dec-1-enecarbonyl)benzo[b]thiophen-2-yl)urea]
1 to 10 µM	1 to 10 µM	CCNC(=O)Nc1sc2ccccc2c1C(=O)N1CCC2(CC1)N=C(COC(C)C)NC2=O [Compound 29, 1-ethyl-3-(3-(2-(isopropoxymethyl)-4-oxo-1,3,8-triazaspiro[4.5]dec-1-enecarbonyl)benzo[b]thiophen-2-yl)urea]
< 1 µM	< 1 µM	CCNC(=O)Nc1sc2c(OC)cccc2c1C(=O)N1CCC2(CC1)N=C(COC1CCCCC1)NC2=O [Compound 32, 1-(3-(2-(cyclohexyloxymethyl)-4-oxo-1,3,8-triazaspiro[4.5]dec-1-enecarbonyl)-7-methoxybenzo[b]thiophen-2-yl)-3-ethylurea]
> 10 µM	1 to 10 µM	CCNC(=O)Nc1sc2ccccc2c1C(=O)N1CCC2(CC1)N=C(Cn1cc(CN(C)C)nn1)NC2=O [Compound 35, 1-(3-(2-((4-((dimethylamino)methyl)-1 H-1,2,3-triazol-1-yl)methyl)-4-oxo-1,3,8-triazaspiro[4.5]dec-1-enecarbonyl)benzo[b]thiophen-2-yl)-3-ethylurea]
1 to 10 µM	< 1 µM	CCNC(=O)Nc1sc2ccccc2c1C(=O)N1CCC2(CC1)N=C(Cn1cc(C(C)(C)C)nn1)NC2=O [Compound 36, 1-(3-(2-((4-tert-butyl-1 H-1,2,3-triazol-1-yl)methyl)-4-oxo-1,3,8-triazaspiro[4.5]dec-1-enecarbonyl)benzo[b]thiophen-2-yl)-3-ethylurea]

More lines, now with the values behind:

SMILES	IC50 [1]	IC50 [2]
CCNC(=O)Nc1sc2c(OC)cccc2c1C(=O)N1CCC2(CC1)NC(c1ccccc1)=NC2=O [Compound 18, 1-ethyl-3-(7-methoxy-3-(4-oxo-2-phenyl-1,3,8-triazaspiro[4.5]dec-2-enecarbonyl)benzo[b]thiophen-2-yl)urea]	1 to 10 µM	< 1 µM
CCCCN1C=NC2(CCN(C(=O)c3c(NC(=O)NCC)sc4ccccc34)CC2)C1=O [Compound 20, 1-(3-(3-butyl-4-oxo-1,3,8-triazaspiro[4.5]dec-1-enecarbonyl)benzo[b]thiophen-2-yl)-3-ethylurea]	> 10 µM	1 to 10 µM
CCNC(=O)Nc1sc2ccccc2c1C(=O)N1CCC2(CC1)N=C(CSc1ccc(F)cc1)NC2=O [Compound 21, 1-ethyl-3-(3-(2-((4-fluorophenylthio)methyl)-4-oxo-1,3,8-triazaspiro[4.5]dec-1-enecarbonyl)benzo[b]thiophen-2-yl)urea]	1 to 10 µM	1 to 10 µM
CCNC(=O)Nc1sc2ccccc2c1C(=O)N1CCC2(CC1)N=C(C[S+]([O-])C(C)C)NC2=O (centres unmarked) [Compound 23, 1-ethyl-3-(3-(2-(isopropylsulfinylmethyl)-4-oxo-1,3,8-triazaspiro[4.5]dec-1-enecarbonyl)benzo[b]thiophen-2-yl)urea]	> 10 µM	< 1 µM
CCNC(=O)Nc1sc2ccccc2c1C(=O)N1CCC2(CC1)N=C(CS(=O)(=O)C(C)C)NC2=O [Compound 24, 1-ethyl-3-(3-(2-(isopropylsulfonylmethyl)-4-oxo-1,3,8-triazaspiro[4.5]dec-1-enecarbonyl)benzo[b]thiophen-2-yl)urea]	1 to 10 µM	< 1 µM
CCNC(=O)Nc1sc2ccccc2c1C(=O)N1CCC2(CC1)N=C(COc1ccccc1OC)NC2=O [Compound 25, 1-ethyl-3-(3-(2-((2-methoxyphenoxy)methyl)-4-oxo-1,3,8-triazaspiro[4.5]dec-1-enecarbonyl)benzo[b]thiophen-2-yl)urea]	1 to 10 µM	< 1 µM
CCNC(=O)Nc1sc2ccccc2c1C(=O)N1CCC2(CC1)N=C(COc1ccccc1C#N)NC2=O [Compound 26, 1-(3-(2-((2-cyanophenoxy)methyl)-4-oxo-1,3,8-triazaspiro[4.5]dec-1-enecarbonyl)benzo[b]thiophen-2-yl)-3-ethylurea]	> 10 µM	< 1 µM
CCNC(=O)Nc1sc2ccccc2c1C(=O)N1CCC2(CC1)N=C(COc1ccccc1C(N)=O)NC2=O [Compound 27, 2-((8-(2-(3-ethylureido)benzo[b]thiophene-3-carbonyl)-4-oxo-1,3,8-triazaspiro[4.5]dec-1-en-2-yl)methoxy)benzamide]	> 10 µM	< 1 µM
CCNC(=O)Nc1sc2ccccc2c1C(=O)N1CCC2(CC1)N=C(COC1CCCCC1)NC2=O [Compound 28, 1-(3-(2-(cyclohexyloxymethyl)-4-oxo-1,3,8-triazaspiro[4.5]dec-1-enecarbonyl)benzo[b]thiophen-2-yl)-3-ethylurea]	1 to 10 µM	< 1 µM
CCNC(=O)Nc1sc2ccccc2c1C(=O)N1CCC2(CC1)N=C(COCC(C)C)NC2=O [Compound 30, 1-ethyl-3-(3-(2-(isobutoxymethyl)-4-oxo-1,3,8-triazaspiro[4.5]dec-1-enecarbonyl)benzo[b]thiophen-2-yl)urea]	1 to 10 µM	< 1 µM
CCNC(=O)Nc1sc2c(OC)cccc2c1C(=O)N1CCC2(CC1)N=C(COCC(C)C)NC2=O [Compound 31, 1-ethyl-3-(3-(2-(isobutoxymethyl)-4-oxo-1,3,8-triazaspiro[4.5]dec-1-enecarbonyl)-7-methoxybenzo[b]thiophen-2-yl)urea]	< 1 µM	< 1 µM
CCNC(=O)Nc1sc2ccccc2c1C(=O)N1CCC2(CC1)N=C(Cn1ccccc1=O)NC2=O [Compound 33, 1-ethyl-3-(3-(4-oxo-2-((2-oxopyridin-1(2 H)-yl)methyl)-1,3,8-triazaspiro[4.5]dec-1-enecarbonyl)benzo[b]thiophen-2-yl)urea]	> 10 µM	1 to 10 µM
CCNC(=O)Nc1sc2ccccc2c1C(=O)N1CCC2(CC1)N=C(Cn1cc(CN)nn1)NC2=O [Compound 34, 1-(3-(2-((4-(aminomethyl)-1 H-1,2,3-triazol-1-yl)methyl)-4-oxo-1,3,8-triazaspiro[4.5]dec-1-enecarbonyl)benzo[b]thiophen-2-yl)-3-ethylurea]	> 10 µM	> 10 µM
CCNC(=O)Nc1sc2ccccc2c1C(=O)N1CCC2(CC1)N=C(Cn1cc(CO)nn1)NC2=O [Compound 37, 1-ethyl-3-(3-(2-((4-(hydroxymethyl)-1 H-1,2,3-triazol-1-yl)methyl)-4-oxo-1,3,8-triazaspiro[4.5]dec-1-enecarbonyl)benzo[b]thiophen-2-yl)urea]	> 10 µM	1 to 10 µM
CCNC(=O)Nc1sc2ccccc2c1C(=O)N1CCC2(CC1)N=C(Cn1cc(C3CC3)nn1)NC2=O [Compound 38, 1-(3-(2-((4-cyclopropyl-1 H-1,2,3-triazol-1-yl)methyl)-4-oxo-1,3,8-triazaspiro[4.5]dec-1-enecarbonyl)benzo[b]thiophen-2-yl)-3-ethylurea]	1 to 10 µM	< 1 µM
